Experiments:
human P2X3 receptor = human P2X3 receptor (Homo sapiens (Human), UniProt P56373); assay: Evaluation of human P2X3 receptor inhibitory activity (Fluo-3 calcium fluorescence, FDSS 3000, ATP stimulation); assay type: cell-based;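 also: stimulus was 50 nM ATP with fluorescence followed for 3 min, and the response per well was peak post-ATP fluorescence divided by the reading at measurement start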
rat P2X3 receptor = rat P2X3 receptor (Rattus norvegicus (Rat), UniProt P49654); assay: Evaluation of rat P2X3 receptor inhibitory activity (Fluo-3 calcium fluorescence, FDSS 3000, ATP stimulation); assay type: cell-based
Protocol: Rat P2X3 receptor gene (GenBank accession number NM_031075) was expressed in C6BU-1 cell. The cells stably expressing rat P2X3 were seeded in a 96-well microtiter plate at a concentration of 8000 cells/well and cultured in the medium (8.3% fetal bovine serum. 8.3% horse serum, 1% antibiotic and antifungal in DMEM) for one day at 37° C. under 5% carbon dioxide atmosphere. In transiently expressing system, the C6BU-1 cells were seeded in a […] at a concentration of 2500 cells/well and cultured in the medium for one day at 37° C. under 5% carbon dioxide atmosphere. The plasmid was transfected into the cells using transfection reagent FuGENE6 (Roche). The transfected cells were cultured in the medium for one day at 37° C. under 5% carbon dioxide atmosphere. […] Measurement of fluorescence intensity by FDSS 3000 was started, and 40 μL of DMSO solutions containing different concentrations of the test compound as prepared by dilution with dilution buffer (20 mM HEPES, 137 mM NaCl, 2.7 mM KCl, 0.9 mM MgCl2, 5.0 mM CaCl2, 5.6 mM D-glucose, 2.5 mM probenecid, 0.1% Pluronic F-127, pH 7.5) were dispensed to each well through the built-in automatic dispenser. Five minutes after, […] ATP solution (50 μL) prepared by dilution with the dilution buffer was dispensed through the built-in automatic dispenser, and the measurement of fluorescence intensity was continued for 3 min. For each well, the specific maximum fluorescence intensity was calculated as the ratio of the maximum fluorescence intensity after addition of the ATP solution to the fluorescence intensity at the starting of the measurement. […] FDSS software (Hamamatsu Photonics K.K.) was used for calculation of the specific maximum fluorescence intensity. IC50 was calculated using Microsoft Excel (Microsoft Corporation) and XLfit (idbs Ltd.).

CYP1A2 = CYP1A2 (Homo sapiens (Human), UniProt P05177); assay: CYP inhibition test, pooled human hepatic microsome, 7-ethoxyresorufin O-deethylation; assay type: in vitro ADME; conditions: substrate ethoxyresorufin
Protocol: (§1) Using commercially available pooled human hepatic microsome, and employlng, as markers, 7-ethoxyresorufin O-deethylation (CYP1A2), tolbutamide methyl-hydroxylation (CYP2C9), mephenyloin 4′-hydroxylation (CYP2C19), dextromethorphan O-demethylation (CYP2D6), and terfenedine hydroxylation as typical substrate metabolism reactions of human main five CYP enzyme forms (CYP1A2, 2C9, 2C19, 2D6, 3A4), an inhibitory degree of each metabolite production amount by a test compound was assessed.
(§2) The reaction conditions were as follows: substrate, 0.5 μmol/L ethoxyresorufin (CYP1A2), 100 μmol/L tolbutamide (CYP2C9), 50 μmol/L S-mephenitoin (CYP2C19), 5 μmol/L dextromethorphan (CYP2D6), 1 μmol/L terfenedine (CYP3A4) reaction time, 15 minutes; reaction temperature, 37° C; enzyme, pooled human hepatic microsome 0.2 mg protein/mL; test drug concentration, 1.0, 5.0, 10, 20 μmol/L (four points).
(§3) Each five kinds of substrates, human hepatic microsome, or a test drug in 50 mmol/L Hepes buffer as a reaction solution was added to a 96-well plate at the composition as described above, NADPH, as a cofactor was added to initiate metabolism reactions as markers and, after the incubation at 37° C. for 15 minutes, a methanol/acetonitrile=1/1 (v/v) solution was added to stop the reaction. After the centrifugation at 3000 rpm for 15 minutes, resorufin (CYP1A2 metabolite) in the supernatant was quantified by a fluorescent multilabel counter and tributamide hydroxide (CYP2CP metabolite), mephenyloin 4′ hydroxide (CYP2C19 metabolite), […] (CYP2D6 metabolite), and terfenadine alcohol (CYP3A4 metabolite) were quantified by LC/MS/MS.

CYP2C19 = CYP2C19 (Homo sapiens (Human), UniProt P33261); assay: CYP inhibition test, pooled human hepatic microsome, mephenytoin 4'-hydroxylation; assay type: in vitro ADME; conditions: substrate S-mephenitoin
Protocol: as §1, §2, §3

CYP3A4 = CYP3A4 (Homo sapiens (Human), UniProt P08684); assay: CYP inhibition test, pooled human hepatic microsome, terfenedine hydroxylation; assay type: in vitro ADME; conditions: substrate terfenedine
Protocol: as §1, §2, §3

[1] = Solubility test (1% DMSO, artificial intestinal juice pH 6.8); assay type: physicochemical; conditions: artificial intestinal juice pH 6.8 with 1% DMSO, 25 °C, fassgf or other biorelevant, kinetic from dmso stock, artificial intestinal juice pH 6.8, 25 degrees Celsius
Protocol: 10 mmol/L compound solution was prepared using DMSO, and then 6 μL of the compound solution was added to 594 μL of artificial intestinal juice in pH 6.8 (to 250 mL of 0.2 mol/L potassium dihydrogen phosphate reagent solution was added 118 mL of 0.2 mol/L NaOH reagent solution and water to provide a final volume of 1000 mL). After standing at 25 degrees Celsius for 16 hours, the mixed solution was filtrated with suction. The filtrate was diluted twice with methanol/water ( 1/1) and then a concentration in the filtration was measured with HPLC or LC/MS/MS by the absolute calibration method.

human liver microsomes = assay: Metabolism stability test with pooled human hepatic microsomes; assay type: in vitro ADME; conditions: compound concentration 0.5 μmol/L, 30 minutes, NADPH
Protocol: Using commercially available pooled human hepatic microsomes, a test compound is reacted for a constant time, a remaining rate is calculated by comparing a reacted sample and an unreacted sample, thereby, a degree of metabolism in liver is assessed.
A reaction was performed (oxidative reaction) at 37° C. for 0 minute or 30 minutes in the presence of 1 mmol/L NADPH in 0.2 mL of a buffer (50 mmol/L tris-HCl pH 7.4, 150 mmol/L potassium chloride, 10 mmol/L magnesium chloride) containing 0.5 mg protein/mL of human liver microsomes. After the reaction, 50 μL of the reaction solution was added to 100 μL of a methanol/acetonitrile=1/1 (v/v), mixed and centrifuged at 3000 rpm for 15 minutes. The test compound in the supernatant was quantified by LC/MS/MS, and a remaining amount of the test compound after the reaction was calculated, letting a compound amount at 0 minute reaction time to be 100%.

[2] = human P2X3 receptor, Test Example 1

Chain of CYP2C19 (P33261 whole entry): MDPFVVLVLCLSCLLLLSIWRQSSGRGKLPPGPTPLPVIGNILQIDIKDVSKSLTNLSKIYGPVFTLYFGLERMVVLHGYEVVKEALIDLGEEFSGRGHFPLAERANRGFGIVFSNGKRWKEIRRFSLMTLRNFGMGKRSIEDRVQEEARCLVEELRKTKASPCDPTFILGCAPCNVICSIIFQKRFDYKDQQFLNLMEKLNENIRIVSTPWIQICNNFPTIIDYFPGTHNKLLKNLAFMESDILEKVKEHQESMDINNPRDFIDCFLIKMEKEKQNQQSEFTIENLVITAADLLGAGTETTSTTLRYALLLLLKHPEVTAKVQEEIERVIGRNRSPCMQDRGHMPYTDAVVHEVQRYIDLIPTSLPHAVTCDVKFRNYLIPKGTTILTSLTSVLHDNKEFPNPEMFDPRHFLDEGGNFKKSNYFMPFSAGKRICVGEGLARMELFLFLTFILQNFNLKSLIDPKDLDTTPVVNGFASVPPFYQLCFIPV
Chain of CYP3A4 (P08684 whole entry): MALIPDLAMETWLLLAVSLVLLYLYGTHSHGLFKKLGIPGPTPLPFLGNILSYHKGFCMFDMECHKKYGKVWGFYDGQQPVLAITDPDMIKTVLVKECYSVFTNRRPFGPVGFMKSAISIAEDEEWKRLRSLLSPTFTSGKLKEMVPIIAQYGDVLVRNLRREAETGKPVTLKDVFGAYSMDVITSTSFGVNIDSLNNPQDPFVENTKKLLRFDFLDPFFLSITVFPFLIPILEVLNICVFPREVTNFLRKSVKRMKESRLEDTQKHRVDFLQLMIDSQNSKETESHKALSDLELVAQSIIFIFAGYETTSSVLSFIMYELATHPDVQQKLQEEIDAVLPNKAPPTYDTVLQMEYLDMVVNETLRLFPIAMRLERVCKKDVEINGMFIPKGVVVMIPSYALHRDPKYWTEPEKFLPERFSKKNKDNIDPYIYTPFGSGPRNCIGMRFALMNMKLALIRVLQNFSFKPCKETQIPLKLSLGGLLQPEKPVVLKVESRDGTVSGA
Chain of human P2X3 receptor (P56373 whole entry): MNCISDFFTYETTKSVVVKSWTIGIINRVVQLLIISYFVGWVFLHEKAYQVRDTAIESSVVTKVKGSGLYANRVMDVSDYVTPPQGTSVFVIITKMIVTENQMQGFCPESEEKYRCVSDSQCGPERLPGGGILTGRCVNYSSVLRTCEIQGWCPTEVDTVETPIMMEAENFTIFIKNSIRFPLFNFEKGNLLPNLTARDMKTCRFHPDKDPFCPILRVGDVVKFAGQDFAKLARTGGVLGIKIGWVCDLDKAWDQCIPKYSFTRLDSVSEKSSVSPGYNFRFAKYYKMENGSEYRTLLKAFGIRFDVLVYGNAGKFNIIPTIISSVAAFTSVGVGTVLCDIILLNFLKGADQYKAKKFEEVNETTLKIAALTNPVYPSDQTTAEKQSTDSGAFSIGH
Chain of CYP1A2 (P05177 whole entry): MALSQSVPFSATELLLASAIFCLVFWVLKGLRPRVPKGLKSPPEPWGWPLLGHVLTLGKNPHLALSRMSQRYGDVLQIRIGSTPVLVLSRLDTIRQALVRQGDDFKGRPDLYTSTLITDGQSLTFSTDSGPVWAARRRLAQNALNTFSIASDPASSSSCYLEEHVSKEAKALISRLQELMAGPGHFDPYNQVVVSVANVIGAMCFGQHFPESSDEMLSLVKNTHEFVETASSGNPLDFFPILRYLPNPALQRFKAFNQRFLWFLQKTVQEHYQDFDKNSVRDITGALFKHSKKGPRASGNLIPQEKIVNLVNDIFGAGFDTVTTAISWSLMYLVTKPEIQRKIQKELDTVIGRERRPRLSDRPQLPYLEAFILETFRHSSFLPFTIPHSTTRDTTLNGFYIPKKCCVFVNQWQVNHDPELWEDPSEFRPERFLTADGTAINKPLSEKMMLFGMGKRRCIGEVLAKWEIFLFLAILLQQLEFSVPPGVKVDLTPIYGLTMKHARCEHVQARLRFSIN
Chain of rat P2X3 receptor (P49654 whole entry): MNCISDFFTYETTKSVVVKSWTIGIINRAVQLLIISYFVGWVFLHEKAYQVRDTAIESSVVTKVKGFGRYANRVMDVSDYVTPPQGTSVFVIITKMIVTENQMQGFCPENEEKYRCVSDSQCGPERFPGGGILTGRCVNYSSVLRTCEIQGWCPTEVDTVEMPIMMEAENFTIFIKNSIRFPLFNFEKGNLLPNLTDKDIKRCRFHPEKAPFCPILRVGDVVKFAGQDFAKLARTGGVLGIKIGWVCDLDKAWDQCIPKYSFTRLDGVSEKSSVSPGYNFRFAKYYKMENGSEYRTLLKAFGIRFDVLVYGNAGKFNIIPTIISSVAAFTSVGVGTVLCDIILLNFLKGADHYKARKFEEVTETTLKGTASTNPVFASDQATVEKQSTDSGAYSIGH

Compound | IC50 (human P2X3 receptor; C6BU-1 cells stably expressing human P2X3 receptor, Fluo-3 fluorescence, FDSS 3000) [nM] | IC50 (rat P2X3 receptor) [nM] | IC50 (CYP1A2) [nM] | IC50 (CYP2C19) [nM] | IC50 (CYP3A4) [nM] | solubility at 16 h [1] [µM] | remaining rate (human liver microsomes) [%] | IC50 (human P2X3 receptor; [2]) [nM]
CCn1c(=O)[nH]/c(=N\c2ccc(Oc3ccnc(C(=O)O)c3)cc2)n(Cc2ccc(Cl)cc2)c1=O [Compound I-1788] | 5 | 5 | > 20000 | > 20000 | > 20000 | > 50 | > 99.9 | 
C[C@@H](Cn1c(=O)[nH]/c(=N\c2ccc(OCC3CC3)cc2)n(Cc2ccc(Cl)cc2)c1=O)C(=O)O [Compound I-0837] |  | 19 | > 20000 | > 20000 | > 20000 | > 50 | 99 | 17
O=c1[nH]/c(=N\c2ccc(Oc3ccon3)cc2)n(Cc2ccc(Cl)cc2)c(=O)n1CC(CO)CO [Compound I-2291] |  | 3 | > 20000 | > 20000 | > 20000 | > 50 | 94 | 4

Source: patent publication US9718790B2, “Triazine derivative and pharmaceutical composition having an analgesic activity comprising the same” (SHIONOGI & CO., LTD., priority 2010, dated 2017)
